Data as given in patent publication US4396614A, “Novel steroids” (Uclaf; Roussel, priority 1980, dated 1983).

What was measured:
aldosterone monoacetate = assay: Antialdosterone activity: diuresis test in surrenalectomized rats (Kagawa/Marcus); assay type: in vivo, rat; settings: surrenalectomized male Sprague Dawley rats, 4 hours urine collection
Experimental: The study was effected by a test inspired by Kagawa [P.S.E.B.M., Vol. 99 (1958), p. 705] and Marcus [Endocrinology, Vol. 50 (1952), p. 286] in which male rats of the Sprague Dawley SPF 1FFA CREDO strain weighing 180 g were surrenalectomized 7 days before diuresis while anestesized with Imalgene (Ketamine) intraperitoneally at a dose of 100 mg/kg. After the operation and from the night before the start of the test, the rats received physiological serum as drinking water and the animals were held without food or drink for 17 hours before diuresis and the physiological serum was replaced by water containing 5% glucose. The test products were orally administered before placing them in a cage and at the moment of diuresis, the animals received intraperitoneally a hydrosaline surcharge of 5 ml per rat of 9.permill. physiological serum and subcutaneously 1 μg/kg of aldosterone monoacetate in 2.5% alcoholic solution.
The rats were placed in pairs in a diuresis cage without food or drink for 4 hours and at this time, a forced emission was induced by pressure against the bladder and the volume of recovered urine was measured. After careful rinsing of the cages and the glass, the urine volume was adjusted to 50 ml and this solution was treated to determine the amount of potassium and sodium in the urine by flame photometry in an autoanalyszer. […] 125-132]. […]

[1] = target: T1, androgen hormonal receptor of prostate cytosol (Rattus norvegicus, UniProt P15207); assay: Androgenic activity: hormonal receptor method of Raynaud, displacement of tritiated 17α-methyl-Δ^4,9,11-estratriene-17β-ol-3-one (Product R) in prostate cytosol; assay type: binding; settings: prostate cytosol of castrated male rats, incubated at 0° C. for 2 hours
T1 construct: The homogenate was centrifuged at 105,000 g per hour and the surnageant or cytosol was adjusted to a dilution of 1/5; from tissue; host or cells: prostate cytosol of male rats castrated 24 hours earlier
T1 sequence (P15207 1-902): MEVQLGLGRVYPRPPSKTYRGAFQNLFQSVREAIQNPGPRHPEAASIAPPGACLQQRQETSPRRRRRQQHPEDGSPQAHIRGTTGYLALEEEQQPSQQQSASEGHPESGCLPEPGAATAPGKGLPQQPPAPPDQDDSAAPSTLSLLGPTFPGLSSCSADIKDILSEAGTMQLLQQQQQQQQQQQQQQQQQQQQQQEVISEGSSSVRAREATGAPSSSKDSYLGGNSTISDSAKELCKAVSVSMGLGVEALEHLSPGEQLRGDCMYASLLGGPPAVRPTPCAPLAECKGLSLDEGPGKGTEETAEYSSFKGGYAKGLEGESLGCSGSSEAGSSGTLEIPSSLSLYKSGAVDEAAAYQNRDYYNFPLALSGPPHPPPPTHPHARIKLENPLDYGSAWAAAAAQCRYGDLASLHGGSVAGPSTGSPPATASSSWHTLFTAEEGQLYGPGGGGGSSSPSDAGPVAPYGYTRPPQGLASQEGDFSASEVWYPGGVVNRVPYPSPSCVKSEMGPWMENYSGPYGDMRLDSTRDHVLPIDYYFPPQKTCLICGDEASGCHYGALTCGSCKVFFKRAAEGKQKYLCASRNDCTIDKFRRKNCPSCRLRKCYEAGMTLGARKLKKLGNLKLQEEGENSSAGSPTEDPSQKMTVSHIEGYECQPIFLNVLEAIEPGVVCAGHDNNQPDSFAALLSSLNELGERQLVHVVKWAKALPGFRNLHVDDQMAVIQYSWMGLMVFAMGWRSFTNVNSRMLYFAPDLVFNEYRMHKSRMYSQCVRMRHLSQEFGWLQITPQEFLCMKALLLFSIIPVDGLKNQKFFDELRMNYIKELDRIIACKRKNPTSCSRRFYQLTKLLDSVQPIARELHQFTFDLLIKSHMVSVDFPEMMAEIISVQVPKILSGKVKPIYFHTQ
Experimental: The latter was homogenized in a buffered solution of 10 mm of tromethamine, 0.25 M of saccharose and a pH of 7.4 with hydrochloric acid. The homogenate was centrifuged at 105,000 g per hour and the surnageant or cytosol was adjusted to a dilution of 1/5 (weight/volume). The resulting solution was incubated at 0° C. for 2 hours in tubes with the same volume of cytosol with a fixed concentration of tritiated 17α-methyl-Δ^4,9,11 - estratriene-17β-ol-3-one (designated as tritiated Product R) in the presence or not of an increasing concentration of radioinactive 17α-methyl-Δ^4,9,11 -estratriene-17β-ol-3-one (designated as cold product R) or the test product. […] The plots were the curves representing the percentage of tritiated product R as a function of the log of the concentration of cold product R or the test product of the I50 straight line parallel to the axis of the abcisses and ordinates.
B/T=(B/T Max.+B/T Min.)/2
B/T max. is the percentage of tied tritiated product R when the product is not added and B/T min, is the percentage of tied tritiated product R when the maximum amount of cold product R is added.

CCC[C@@H]1CC2=CC(=O)C=C[C@]2(C)[C@H]2CC[C@@]3(C)[C@@H](CC[C@@]3(O)CCC(=O)O)[C@H]12 [Example 10, Potassium 7α-propyl-17α-Δ^1,4-pregnadiene-17β-ol-3-one-21-carboxylate]
percentage of inhibition of the activity of 1 μg/kg of aldosterone monoacetate (log of ratio sodium concentration/potassium concentration in urine) (aldosterone monoacetate; 0.4 mg/kg orally): 30%
percentage of inhibition of the activity of 1 μg/kg of aldosterone monoacetate (log of ratio sodium concentration/potassium concentration in urine) (aldosterone monoacetate; 2 mg/kg orally): 80%
ARL (relative affinity = 100×(CT/CX)) [1]: 0.02
